Reference: the supplement of paper PMC3621838
± gives the standard deviation of the averaged measurements.

System: HEK293 NF-kB-luciferase reporter cells
Test: NF-kB luciferase reporter activity, robust Z-score vs plate median (robust Z-score (log luminescence)); higher = stronger NF-kB reporter activation
Details: TNF treatment time 8.5 h, transfection time 72 h
Method: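 Primary screen of an Ambion Pre-miR miRNA mimic library (miRBase v8.0, 1.6 pmol/well, 384-well, duplicate) reverse-transfected into HEK293 cells stably expressing a 5x NF-kB firefly luciferase reporter. After 72 h the cells were treated with vehicle or TNF (40 ng/mL) for 8.5 h and luminescence was read (BriteLite). Raw luminescence was log-transformed and converted to a robust Z-score per plate: (x - plate median)/plate MAD. Sequence given is the mature miRNA strand of the double-stranded mimic.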

| Sequence | NF-kB luciferase reporter activity (TNF 0 ng/mL) | NF-kB luciferase reporter activity (TNF 40 ng/mL) |
| --- | --- | --- |
| ACAAAGUGCUUCCCUUUAGAGU | -1.29 ± 0.15 | -0.471 ± 0.097 |
| AUCGGGAAUGUCGUGUCCGCC | 1.11 ± 0.67 | 0.676 ± 0.033 |
| UAGCACCAUCUGAAAUCGGUU | 0.81 ± 0.93 | -2.2 ± 0.16 |
| UAGGCAGUGUCAUUAGCUGAUUG | 2.71 ± 0.93 | -1.42 ± 0.053 |
| UAUGUGCCUUUGGACUACAUCG | -0.472 ± 0.26 | -1.23 ± 0.037 |
| CCUCUAGAUGGAAGCACUGUCU | -0.0988 ± 0.27 | 0.749 ± 0.033 |
| UCUCACACAGAAAUCGCACCCGUC | 0.103 ± 1.2 | 0.598 ± 0.025 |
| UAUGGCUUUUCAUUCCUAUGUG | -0.314 ± 0.58 | -0.369 ± 0.0092 |
| UUUAACAUGGGGGUACCUGCUG | -0.207 ± 0.29 | 0.504 ± 0.055 |
| UCCAGCUCCUAUAUGAUGCCUUU | 3.61 ± 0.75 | -0.188 ± 0.11 |
| UUAAGACUUGCAGUGAUGUUUAA | -0.92 ± 0.38 | 0.155 ± 0.07 |
| GUCAACACUUGCUGGUUUCCUC | -0.0513 ± 0.073 | -0.799 ± 0.029 |
| UGUCUGCCCGCAUGCCUGCCUCU | 1.07 ± 0.88 | 0.822 ± 0.046 |
| AGACCCUGGUCUGCACUCUAU | 0.885 ± 0.42 | 0.7 ± 0.065 |
| UCAAGAGCAAUAACGAAAAAUGU | 0.225 ± 0.32 | 1.08 ± 0.015 |
| UCAGUGCAUCACAGAACUUUGU | 0.225 ± 0.32 | 0.0758 ± 0.04 |
| CGAAUGUUGCUCGGUGAACCCCU | -1.7 ± 0.2 | -2.17 ± 0.28 |
| CUCCAGAGGGAAGUACUUUCU | -1.38 ± 1.7 | -1.33 ± 0.13 |
| AAAGUGCUUCCCUUUGGACUGU | -1.29 ± 0.15 | -0.57 ± 0.16 |
| GUCAUACACGGCUCUCCUCUCU | 0.54 ± 0.4 | -1.19 ± 0.14 |
| UAAUACUGUCUGGUAAAACCGU | -0.175 ± 0.95 | 0.65 ± 0.15 |
| AAAGUGCUUCCUUUUAGAGGC | -1.48 ± 0.11 | -0.83 ± 0.031 |
| AUCAUGAUGGGCUCCUCGGUGU | -0.346 ± 1.1 | -0.71 ± 0.099 |
| AAUCCUUGGAACCUAGGUGUGAGU | 0.598 ± 0.14 | 0.0708 ± 0.057 |
| UCCGUCUCAGUUACUUUAUAGCC | 0.757 ± 0.51 | 0.334 ± 0.055 |
| UUUGUUCGUUCGGCUCGCGUGA | -0.464 ± 1 | -3.19 ± 0.074 |
| CAAAGCGCUUCUCUUUAGAGUG | -0.207 ± 0.29 | 0.143 ± 0.13 |
| UAAUACUGCCUGGUAAUGAUGAC | 0.744 ± 0.84 | 1.37 ± 0.22 |

| Sequence | NF-kB luciferase reporter activity (TNF 0 ng/mL) | NF-kB luciferase reporter activity (TNF 40 ng/mL) |
| --- | --- | --- |
| CUGCAAAGGGAAGCCCUUUCU | -0.197 ± 1 | -0.78 ± 0.054 |
| GCCUGCUGGGGUGGAACCUGG | -0.469 ± 0.36 | 0.451 ± 0.051 |
| ACUGCCCUAAGUGCUCCUUCU | 2.18 ± 0.41 | 0.608 ± 0.041 |
| UCCCUGAGACCCUUUAACCUGUG | 0.417 ± 0.12 | 1.32 ± 0.15 |
| AUCGUGCAUCCUUUUAGAGUGU | 4.81 ± 0.46 | 0.331 ± 0.0088 |
| AGAGGUAUAGGGCAUGGGAAAA | -0.25 ± 0.57 | -1.06 ± 0.24 |
| GAAGGCGCUUCCCUUUAGAGC | -0.845 ± 0.78 | -0.47 ± 0.02 |
| UGGUAGACUAUGGAACGUA | 0.274 ± 0.8 | 0.0556 ± 0.21 |
| AACAUUCAUUGUUGUCGGUGGGUU | 0.371 ± 0.31 | -0.631 ± 0.082 |
| UCUACAGUGCACGUGUCU | -1.16 ± 0.34 | -0.417 ± 0.031 |
| GUGAAAUGUUUAGGACCACUAG | 0.966 ± 1.4 | 0.9884 ± 0.0031 |
| CCACUGCCCCAGGUGCUGCUGG | 0.831 ± 0.013 | -0.0587 ± 0.18 |
| AACACACCUGGUUAACCUCUUU | -1.14 ± 0.07 | 0.254 ± 0.15 |
| AAAGCGCUUCCCUUCAGAGUGU | 0.00327 ± 0.13 | 0.467 ± 0.04 |
| UGGUUGACCAUAGAACAUGCGC | -0.133 ± 0.5 | -2.27 ± 0.2 |
| AAUCGUACAGGGUCAUCCACUU | -0.187 ± 0.52 | 0.638 ± 0.17 |
| UAACACUGUCUGGUAAAGAUGG | 0.999 ± 0.35 | 1.415 ± 0.012 |
| CCUAGUAGGUGUCCAGUAAGUGU | -0.0662 ± 0.93 | 0.432 ± 0.025 |
| AAAGUGCUUCCUUUUAGAGGGUU | -1.51 ± 0.46 | -0.653 ± 0.033 |
| AGGACCUGCGGGACAAGAUUCUU | -0.175 ± 0.95 | 1.11 ± 0.19 |
| UACUCAGGAGAGUGGCAAUCACA | 1.06 ± 0.93 | -0.306 ± 0.029 |
| UGGAGAGAAAGGCAGUUC | 0.465 ± 0.4 | 0.268 ± 0.031 |
| GAGUGCCUUCUUUUGGAGCGU | -0.314 ± 0.76 | -0.822 ± 0.14 |
| UAAGUGCUUCCAUGUUUUGGUGA | -1.29 ± 0.15 | -0.801 ± 0.13 |
| AAAGCGCUUCUCUUUAGAGGA | -0.221 ± 1.4 | 0.82217 ± 0.00059 |
| UCUGCAAAGGGAAGCCCUUU | 0.625 ± 1.3 | 0.788 ± 0.045 |
| AUGCACCUGGGCAAGGAUUCUG | -0.197 ± 0.13 | 1.14 ± 0.15 |
